Several values for one entry are separate records, joined by “and”; a condition that tells them apart may be missing. Equal values may be shown once. Read-outs that look alike come from different tables or passages of the source.
Legend:
[1] = Mouse brain tissue binding; assay type: in vitro ADME
[2] = target: T1, 5-HT2A (Homo sapiens, UniProt P28223); experiment: cell-based
[3] = target: T2, 5-HT1A (Homo sapiens, UniProt P08908); experiment: BRET signaling assay: 5-HT1A-mediated activation of heterotrimeric Gi1 (TRUPATH, HEK293-T); details: for Efficacy as %5HT 5-HT1A BRET Gi1: Table 6, commercial ligands
[4] = target: T3, human 5-HT1A (Homo sapiens, UniProt P08908); experiment: 5-HT1A-mediated cAMP reduction assay (GloSensor, HEK293-T); details: for Efficacy as %5HT 5-HT1A cAMP: Table 6, commercial ligands
T3 sequence (P08908 1-422): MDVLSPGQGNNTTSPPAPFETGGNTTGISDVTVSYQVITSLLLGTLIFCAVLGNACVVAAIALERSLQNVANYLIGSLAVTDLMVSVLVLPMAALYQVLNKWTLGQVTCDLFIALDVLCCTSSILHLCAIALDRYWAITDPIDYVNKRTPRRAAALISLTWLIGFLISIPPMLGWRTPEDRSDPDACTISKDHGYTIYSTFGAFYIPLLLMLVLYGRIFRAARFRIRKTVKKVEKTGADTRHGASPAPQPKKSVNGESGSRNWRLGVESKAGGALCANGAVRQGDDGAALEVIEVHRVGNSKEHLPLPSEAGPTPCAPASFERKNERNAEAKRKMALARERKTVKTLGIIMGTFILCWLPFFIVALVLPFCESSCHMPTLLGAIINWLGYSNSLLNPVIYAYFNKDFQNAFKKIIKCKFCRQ

[5] = target: T2, 5-HT1A; experiment: cell-based
[6] = target: T3, human 5-HT1A; experiment: cell-based
[7] = target: 5-HT2B (Homo sapiens, UniProt P41595); experiment: IP1 functional assay 5-HT2B; assay type: cell-based
[8] = target: T1, 5-HT2A; experiment: cell-based; design: expressed in transfected cells; host or cells: HEK293-T
[9] = target: T1, 5-HT2A
[10] = EC50 (nM) Mean BRET Gq-2A, Table 2
[11] = EC50 (nM) Mean Gio(cAMP)-1A, Table 2
[12] = EC50 (nM) Mean BRET Gi1-1A, Table 2
[13] = Activity (5-HT1A cAMP) EC50 (nM), Table 5

T1 sequence (P28223 whole entry): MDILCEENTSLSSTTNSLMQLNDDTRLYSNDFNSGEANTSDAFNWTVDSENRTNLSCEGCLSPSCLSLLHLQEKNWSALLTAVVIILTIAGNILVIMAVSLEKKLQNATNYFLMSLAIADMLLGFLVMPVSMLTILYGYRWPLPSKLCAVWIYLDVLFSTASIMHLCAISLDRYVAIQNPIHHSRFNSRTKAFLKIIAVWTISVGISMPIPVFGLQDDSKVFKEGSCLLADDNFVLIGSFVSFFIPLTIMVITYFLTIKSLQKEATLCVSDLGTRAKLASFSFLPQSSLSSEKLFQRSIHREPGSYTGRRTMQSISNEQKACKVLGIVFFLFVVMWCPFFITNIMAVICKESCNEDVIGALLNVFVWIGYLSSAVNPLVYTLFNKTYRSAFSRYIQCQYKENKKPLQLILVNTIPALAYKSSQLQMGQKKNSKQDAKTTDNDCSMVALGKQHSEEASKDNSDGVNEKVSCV
Chain of 5-HT2B (P41595 whole entry, species assumed): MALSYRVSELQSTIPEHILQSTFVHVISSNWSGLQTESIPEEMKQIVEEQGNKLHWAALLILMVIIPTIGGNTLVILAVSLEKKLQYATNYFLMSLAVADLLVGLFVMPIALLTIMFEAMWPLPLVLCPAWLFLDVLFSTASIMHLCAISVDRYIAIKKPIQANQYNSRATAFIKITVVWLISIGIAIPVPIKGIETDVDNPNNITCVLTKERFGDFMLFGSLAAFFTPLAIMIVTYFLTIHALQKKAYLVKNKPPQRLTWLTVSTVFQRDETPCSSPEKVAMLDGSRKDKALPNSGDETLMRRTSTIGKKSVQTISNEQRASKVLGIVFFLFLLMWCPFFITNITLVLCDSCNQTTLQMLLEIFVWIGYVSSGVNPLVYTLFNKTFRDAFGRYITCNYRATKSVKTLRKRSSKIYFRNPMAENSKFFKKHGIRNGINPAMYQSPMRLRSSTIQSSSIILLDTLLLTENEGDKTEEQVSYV

NC(=O)N1c2ccccc2C=Cc2ccccc21 [Carbamazepine]
% Bound Mean [1]: 88.2% | % Recovery [1]: 72% | % Unbound [1]: 11.8% | fu [1]: 0.118 | % Compound remaining at 4 h ([1]; 4 h): 96% | % Bound R1 ([1]; replicate R1): 89.0%

COc1ccc2[nH]cc(CCN3CCCC3)c2c1F [Compound 11]
EC50 [2, 10]: 300 nM | EC50 ([3]; pEC50 BRET Gi1-1A, Table 2): 0.372 nM | EC50 [4, 11]: 0.03 nM | EC50 ([4]; pEC50 Gio(cAMP)-1A, Table 2): 0.0282 nM

COc1ccc2[nH]cc(CCN(C)C(C)C)c2c1 [Compound 14]
EC50 [2]: 17.3 nM | EC50 [5]: 112 nM | EC50 [6]: 51.8 nM

CCCN(CCC)CCc1c[nH]c2ccc(OC)cc12 [Compound 13, 5-methoxy-N,N-dipropyl-tryptamine]
EC50 [7]: 76 nM | Emax ([7]; read-out: 5-HT2B (IP1) Emax (%5-HT), Table 3): 108% | EC50 [8]: 82 nM | Emax ([8]; read-out: 5-HT2A (IP1) Emax (%5-HT)): 94%

COc1ccc2[nH]cc(CCN3CCCCC3)c2c1F [Compound 36, 4-fluoro-5-methoxy-3-(2-(piperidin-1-yl)ethyl)-1H-indole]
EC50 [5]: 8.97 nM | EC50 [6]: 2.42 nM

CN(C)CCc1c[nH]c2cccc(O)c12 [Compound 52, Psilocin, reference compound]
EC50 [5]: 1080 nM and 1070 nM | EC50 [6]: 512 nM

CCN(CC)CCc1c[nH]c2ccc(OC)c(F)c12 [Compound 27, N,N-diethyl-2-(4-fluoro-5-methoxy-1H-indol-3-yl)ethan-1-amine]
EC50 [2]: 673 nM | EC50 [5]: 3.18 nM | EC50 [6]: 0.21 nM and 0.204 nM

CCCN(CCc1c[nH]c2ccc(OC)c(F)c12)C(C)C [Compound 8]
EC50 [2, 10]: 249 nM | EC50 [3, 12]: 16.8 nM | EC50 ([3]; pEC50 BRET Gi1-1A, Table 2): 16.6 nM | EC50 [4, 11]: 5.96 nM | EC50 ([4]; pEC50 Gio(cAMP)-1A, Table 2): 5.89 nM

CCN(C)CCc1c[nH]c2ccc(OC)c(F)c12 [Compound 2]
EC50 [2, 10]: 99.3 nM | EC50 [3, 12]: 1.77 nM | EC50 ([4]; pEC50 Gio(cAMP)-1A, Table 2): 0.316 nM

CCCN(CCC)CCc1c[nH]c2ccc(OC)cc12 [Compound 13]
EC50 [2]: 20.2 nM | EC50 [5]: 15.4 nM | EC50 [6]: 3.57 nM and 4.37 nM

CCN(CC)CCc1c[nH]c2ccc(OC)cc12 [Compound 11]
EC50 [2]: 172 nM | EC50 [5]: 37.1 nM | EC50 [6]: 11 nM

O=C1CC2(CCCC2)CC(=O)N1CCCCN1CCN(c2ncccn2)CC1 [Buspirone, buspirone, reference compound]
Emax ([3]; HEK-293T, read-out: Emax, 5-HT1A-mediated activation of Gi1 (BRET)): 93.4% | Efficacy as %5HT 5-HT1A BRET Gi1 [3]: 93.4 %5HT | Efficacy as %5HT 5-HT1A cAMP [4]: 96.0 %5HT

C=CCN(C)CCc1c[nH]c2ccc(OC)c(F)c12 [Compound 10]
EC50 [2, 10]: 156 nM | EC50 [3, 12]: 8.41 nM | EC50 [4, 11]: 2.57 nM

CCCN(CC)CCc1c[nH]c2ccc(OC)cc12 [Compound 12]
EC50 [2]: 22.1 nM | EC50 [5]: 8.36 nM | EC50 [6]: 2.47 nM

CN(C)CCc1c[nH]c2ccc(O)cc12 [Compound 49, Bufotenine, reference compound]
EC50 [5]: 9.29 nM

COc1ccc2[nH]cc(CCN(C(C)C)C(C)C)c2c1F [Compound 33, N-(2-(4-fluoro-5-methoxy-1H-indol-3-yl)ethyl)-N-isopropylpropan-2-amine]
EC50 [2]: 338 nM | EC50 [5]: 35.8 nM | EC50 [6]: 6 nM

CCN(C)CCc1c[nH]c2ccc(OC)cc12 [Compound 9]
EC50 [2]: 37.7 nM | EC50 [5]: 25.9 nM | EC50 [6]: 4.44 nM

NCCc1c[nH]c2ccc(O)cc12 [Compound 5-HT, 5-hydroxytryptamine, reference compound]
Normalized (%5HT) Top Mean BRET Gq-2A ([9]; Table 2): 100.0 %5HT | Efficacy as %5HT 5-HT2A BRET Gq ([9]; Table 6, commercial ligands): 100.0 %5HT | Normalized (%5HT) Top Mean BRET Gi1-1A ([3]; Table 2): 100.0 %5HT | Efficacy as %5HT 5-HT1A BRET Gi1 [3]: 100.0 %5HT | Normalized (%5HT) Top Mean Gio(cAMP) 1A ([4]; Table 2): 100.0 %5HT | Efficacy as %5HT 5-HT1A cAMP [4]: 100.0 %5HT

CCCN(CCc1c[nH]c2ccc(OC)c(F)c12)C(C)C [Compound 32, N-(2-(4-fluoro-5-methoxy-1H-indol-3-yl)ethyl)-N-isopropylpropan-1-amine]
EC50 [2]: 249 nM | EC50 [5]: 16.8 nM and 16.6 nM | EC50 [6]: 5.96 nM and 5.89 nM

c1cnc2[nH]cc(CCN3CCCCC3)c2c1 [Compound 75, 3-(2-(piperidin-1-yl)ethyl)-1H-pyrrolo[2,3-b]pyridine]
EC50 [4, 13]: 18500 nM

COc1ccc2[nH]cc(CCN3CC=CC3)c2c1F [Compound 13]
EC50 [2, 10]: 120 nM | EC50 ([3]; pEC50 BRET Gi1-1A, Table 2): 0.219 nM | EC50 ([4]; pEC50 Gio(cAMP)-1A, Table 2): 0.00229 nM

COc1ccc2occ(CCN3CCCCC3)c2c1 [Compound 78, 1-(2-(5-methoxybenzofuran-3-yl)ethyl)piperidine]
EC50 [4, 13]: 416 nM

From patent US20260034119A1, “5-METHOXY-N,N-[…][…], THEIR […], AND METHODS FOR TREATMENT OF NEUROLOGICAL, […], AND SUBSTANCE USE DISORDERS” (priority 2023, published 2026)
